Source: paper PMC11129499, “The hepatoprotective effect of 4-phenyltetrahydroquinolines on carbon tetrachloride induced hepatotoxicity in rats through autophagy inhibition” (Biological Research, 2024)

Columns and labels:
[1] = system: alpha-smooth muscle actin (α-SMA) positive HSCs/myofibroblasts; experiment: CCl4 model, α-SMA immunohistochemistry of liver sections; format: in vivo, Wistar albino male rats; conditions: CCl4 + compound 25 mg/kg p.o. daily, 14 days; vs hepatotoxicity group
Procedure: (§1) Rats were divided into eleven groups, with seven rats in each group. Group I, the control group, received corn oil (1 ml/kg body weight, i.p.) every 72 h for 14 days. Group II, the hepatotoxicity group, received CCl4 (1 ml/kg body weight, a 1:1 v/v mixture of CCl4 and corn oil, i.p.) every 72 h for 14 days. Groups III–VI, the treated groups, received compounds (1a, 1b, 2a, and 2b), respectively, (25 mg/kg body weight, suspended in 0.5% CMC, p.o.) every 24 h, as well as CCl4 (1 ml/kg body weight, a 1:1 v/v mixture of CCl4 and corn oil, i.p.) every 72 h for 14 days. Group VII, the positive control group, received silymarin (100 mg/kg, suspended in 0.5% CMC, p.o.) every 24 h, as well as CCl4 (1 ml/kg body weight, a 1:1 v/v mixture of CCl4 and corn oil, i.p.) every 72 h for 14 days. Groups VIII–XI, the safety profile groups, received only compounds (1a, 1b, 2a, and 2b), respectively, (25 mg/kg, suspended in 0.5% CMC, p.o.) every 24 h for 14 days.
From paraffin-embedded blocks of liver tissues, 4- to 5-μm-thick sections were cut using a semi-automated microtome. […] They were stained by alpha-smooth muscle actin (α-SMA) primary antibody (Clone 1A4, ready-to-use, mouse monoclonal antibody, Dako) using the autostainer DAKO link 48. […] Using Image J software, activated HSCs/myofibroblasts were counted in the five high power fields. […] Only cells with well-visible nuclei were counted.

[2] = system: CCl4-induced hepatotoxicity; experiment: CCl4-induced hepatotoxicity model, liver histopathology (METAVIR scoring); format: in vivo, Wistar albino male rats; design: key to activity grade (METAVIR): A0 = none; A1 = mild; A2 = moderate; A3 = sever; key to fibrosis score (METAVIR): F0 = no fibrosis; F1 = mild/moderate; F2 = significant; F3 = advanced fibrosis; F4 = cirrhosis; conditions: 14 days
Procedure: as §1
(§2) Rats were euthanized 24 h after the last dose of treatment with an inhaled overdose of isoflurane. Blood was extracted through a cardiac puncture, left for coagulation, and the serum was obtained by centrifugation for 10 min at 5000 rpm (GBF501, Centrifuge Cencom-II, Selecta). Livers were collected, then dissected into portions. One portion was fixed overnight in 10% buffered formalin (Adwic—El Nasr Pharmaceutical Co., Egypt) for histological examination. Another portion was homogenized, centrifuged at 10,000 rpm for 10 min, and the supernatants were collected for further investigation. Total protein content of all homogenates were determined using the Pierce™ BCA Protein Assay Kit (Catalog number: 23227, Thermo-Fisher Scientific Co., USA) following the manufacturer’s instructions. Liver tissues and homogenates were stored at − 80 °C until used.
(§3) Serial sectioning was done on the formalin-fixed liver tissues, which were then processed into paraffin blocks. Multiple serial, 5-μm-thick sections were cut and mounted on glass slides. One section was stained by H&E stain to assess the activity, while the other was stained by Masson trichrome stain to assess fibrosis. Both activity and fibrosis were assessed using a light microscope (Olympus, CX 22LED) using the METAVIR scoring system. For activity, the number of inflammatory foci (lobular necrosis) and degree of portal inflammation (piece meal necrosis) were evaluated, and then a final histological activity score was given (A0 = none, A1 = mild, A2 = moderate, and A3 = sever). Meanwhile, fibrosis assessment was done on Masson trichrome stained sections. The fibrosis scored according to a 4-tiered system (F0 = no fibrosis, F1 = mild/moderate, F2 = significant, F3 = advanced fibrosis, and F4 = cirrhosis). Other pathologic features, such as the presence or absence of steatosis and/or apoptotic hepatocytes, were assessed if present.

LC3B = experiment: CCl4 model, LC3B ELISA in liver homogenates; format: in vivo, Wistar albino male rats; conditions: CCl4 + compound 25 mg/kg (silymarin 100 mg/kg) p.o. daily, 14 days
Procedure: (§4) Rats were divided into eleven groups, with seven rats in each group. Group I, the control group, received corn oil (1 ml/kg body weight, i.p.) every 72 h for 14 days. Group II, the hepatotoxicity group, received CCl4 (1 ml/kg body weight, a 1:1 v/v mixture of CCl4 and corn oil, i.p.) every 72 h for 14 days. Groups III–VI, the treated groups, received compounds (1a, 1b, 2a, and 2b), respectively, (25 mg/kg body weight, suspended in 0.5% CMC, p.o.) every 24 h, as well as CCl4 (1 ml/kg body weight, a 1:1 v/v mixture of CCl4 and corn oil, i.p.) every 72 h for 14 days. […]
(§5) Rats were euthanized 24 h after the last dose of treatment with an inhaled overdose of isoflurane. […] Total protein content of all homogenates were determined using the Pierce™ BCA Protein Assay Kit (Catalog number: 23227, Thermo-Fisher Scientific Co., USA) following the manufacturer’s instructions. […]
(§6) The pro-inflammatory and pro-fibrotic cytokines tumor necrosis factor alpha (TNF-α) and transforming growth factor beta (TGF-β) were evaluated in liver tissues using ELISA kits (Catalog Numbers: CSB-E11987r and CSB-E04727r, CUSABIO, USA). For further investigation of the potential mechanism of action of the synthesized compounds, the levels of autophagy-related proteins, Beclin-1 (Catalog Number: CSB-EL002658RA, CUSABIO, USA) and LC3B (Catalog No. LS-F19802, Lifespan Biosciences, USA), were quantified in liver homogenates. […]

[3] = system: CCl4-induced oxidative stress; experiment: CCl4 model, oxidative stress markers (MDA, GSH) in liver homogenates; format: in vivo, Wistar albino male rats; conditions: CCl4 + compound 25 mg/kg p.o. daily, 14 days; vs hepatotoxicity group unless stated
Procedure: as §1, with “Groups VIII–XI, the safety profile groups, received only compounds (1a, 1b, 2a, and 2b), respectively, (25 mg/kg, suspended in 0.5% CMC, p.o.) every 24 h for 14 days.” left out
as §5
The level of reduced glutathione (GSH) was measured in liver tissue homogenates using a colorimetric kit for GSH (Cat.No.E-BC-K030-M, Elabscience, USA). Malondialdehyde (MDA) levels were determined as thiobarbituric acid reactive substances (TBARS) in liver homogenates according to the method of Draper and Hadley.

[4] = system: transforming growth factor beta (TGF-β); experiment: CCl4 model, TGF-β ELISA in liver tissues; format: in vivo, Wistar albino male rats; conditions: CCl4 + compound 25 mg/kg p.o. daily, 14 days; vs hepatotoxicity group unless stated
Procedure: as §4, §5, §6

[5] = system: Human hepatoma (HepG2) cells; experiment: MTT in-vitro cytotoxicity assay on HepG2 cells; format: cell-based; conditions: HepG2, 24 h treatment, 7.8125-500 μM
Procedure: Human hepatoma (HepG2) cells were used to evaluate the in-vitro cytotoxicity of the newly synthesized compounds compared to tacrine as their structure-inspiring drug. The HepG2 cell line was obtained from ATCC. The cells were cultured in DMEM with high glucose, supplemented with 10% FBS, 100 U/ml penicillin, and 1% streptomycin were maintained in a 37 °C incubator with 5% CO2 in a humidified atmosphere. One day before the treatment, cells were seeded at a density of 1 × 10^4 cells/well in a sterile flat bottom 96-well tissue culture plate. After leaving the cells to adhere for 24 h, cells were treated with different concentrations (7.8125, 15.625, 31.25, 62.5, 125, 250, and 500 μM) of each compound as well as tacrine for 24 h in the 5% CO2 incubator.
Thereafter, cell viability was assessed using a 3-(4,5-dimethyl-2-thiazolyl)-2,5-diphenyl-tetrazolium bromide (MTT) assay obtained from Biobasic inc (Canada). Following the 24-h treatment period, MTT was added to the wells at a final concentration of 0.5 mg/mL, and the cells were incubated for 4 h in the dark. Subsequently, the media were carefully removed from the wells, and the formed formazan crystals were dissolved by adding 100 μL of DMSO. Absorbance readings were taken using a microplate reader (BioTek, USA), and the percentage cell viability was calculated for each condition relative to the control cells treated with the same DMSO concentration.

[6] = system: CCl4-induced hepatotoxicity; experiment: CCl4-induced hepatotoxicity model, serum liver function tests; format: in vivo, Wistar albino male rats; conditions: CCl4 1 ml/kg i.p. every 72 h + compound 25 mg/kg p.o. daily, 14 days; vs hepatotoxicity group unless stated
Procedure: as §1, §2
A variety of colorimetric serum diagnostic kits were used to assess the toxicity and hepatoprotective potential of the newly synthesized derivatives. Lipid profile parameters, including total cholesterol (TC) and triglycerides (TG), as well as kidney function tests, urea, and creatinine were measured to evaluate the toxicity profile. Liver function tests, including alanine transaminase (ALT), aspartate transaminase (AST), alkaline phosphatase (ALP), and total bilirubin (TBIL) were used for the assessment of both hepatotoxicity and hepatoprotective potential. All diagnostic kits were purchased from Biodiagnostics, Egypt, and were used and stored according to the manufacturer’s instructions.

[7] = system: tumor necrosis factor alpha (TNF-α); experiment: CCl4 model, TNF-α ELISA in liver tissues; format: in vivo, Wistar albino male rats; conditions: CCl4 + compound 25 mg/kg p.o. daily, 14 days; vs hepatotoxicity group unless stated
Procedure: as §4, §5, §6

Beclin-1 = experiment: CCl4 model, Beclin-1 ELISA in liver homogenates; format: in vivo, Wistar albino male rats; conditions: CCl4 + compound 25 mg/kg (silymarin 100 mg/kg) p.o. daily, 14 days
Procedure: as §4, §5, §6

liver tissues = experiment: In-vivo toxicity study (compounds only), liver histopathology (H&E, Masson trichrome); design: key to fibrosis score in liver sections (safety profile): F0 = no fibrosis; F1 = mild/moderate; F2 = significant; F3 = advanced fibrosis; F4 = cirrhosis; conditions: compound only, 25 mg/kg p.o. 14 days; for fibrosis score in liver sections (safety profile): Masson trichrome, METAVIR; for lobular inflammation in liver sections (safety profile): H&E, noted less frequently in Cpd 2b
Procedure: as §1, §2, §3

[8] = In-vivo toxicity study (compounds only), serum liver, lipid and kidney tests; conditions: compound only, 25 mg/kg p.o. every 24 h for 14 days
Procedure: as §4, §5
A variety of colorimetric serum diagnostic kits were used to assess the toxicity and hepatoprotective potential of the newly synthesized derivatives. Lipid profile parameters, including total cholesterol (TC) and triglycerides (TG), as well as kidney function tests, urea, and creatinine were measured to evaluate the toxicity profile. […]

[9] = CCl4 + compound 25 mg/kg (silymarin 100 mg/kg) p.o. daily
[10] = CCl4 + compound 25 mg/kg p.o. daily

| SMILES | number of α-SMA positive cells / 5 HPFs [1] | improvement of liver fibrosis / architecture, in words [2, 9] | lobular and portal inflammation (activity), in words [2, 10] | steatosis and apoptotic cells in liver sections [2, 10] | expression of LC3B protein (LC3B) | MDA levels in liver homogenates [3] | TGF-β level in liver tissues [4] | IC50 [5] [µM] | serum ALT [6] | serum AST [6] | TNF-α level in liver tissues [7] | expression of Beclin-1 protein (Beclin-1) | fibrosis score in liver sections (safety profile) (liver tissues) | lobular inflammation in liver sections (safety profile) (liver tissues) | total cholesterol (safety profile) [8] | triglyceride levels (safety profile) [8] | fibrosis score (METAVIR) ([2]; CCl4 + compound 25 mg/kg (silymarin 100 mg/kg) p.o. daily, hepatotoxicity group F4) | activity grade (METAVIR) ([2]; CCl4 + compound 25 mg/kg p.o. daily, hepatotoxicity group A3) |
| --- | --- | --- | --- | --- | --- | --- | --- | --- | --- | --- | --- | --- | --- | --- | --- | --- | --- | --- |
| CN(C)c1ccc(-c2c(C#N)c(N)nc3c2CCCC3)cc1 [Cpd 2a, 2-Amino-4-(4-(dimethylamino)phenyl)-5,6,7,8-tetrahydroquinoline-3-carbonitrile] | better levels of significance, closely aligning with silymarin | best protective effect on the liver sections | improved markedly | No steatosis or apoptotic cells were detected | greater impact on inhibiting autophagy compared to the other compounds tested | highly superior to compounds 1a, 1b and silymarin | better effect on decreasing the level of both cytokines relative to compounds 1a and 1b and silymarin | 171 | as beneficial as silymarin | as beneficial as silymarin | better effect on decreasing the level of both cytokines relative to compounds 1a and 1b and silymarin | greater impact on inhibiting autophagy compared to the other compounds tested | F0 |  |  |  |  |  |
| N#Cc1c(-c2ccc(O)cc2)c2c([nH]c1=O)CCCC2 [Cpd 1b, 1,2,5,6,7,8-hexahydro-4-(4-hydroxyphenyl)-2-oxoquinoline-3-carbonitrile] |  | better improvement in fibrosis score |  |  |  |  |  | 174 |  |  |  |  | F0 | mild, insignificant lobular inflammation (activity grade 1) |  |  |  |  |
| N#Cc1c(N)nc2c(c1-c1ccc(O)cc1)CCCC2 [Cpd 2b, 2-Amino-5,6,7,8-tetrahydro-4-(4-hydroxyphenyl)quinoline-3-carbonitrile] | better levels of significance, closely aligning with silymarin | better improvement in fibrosis score |  |  | greater impact on inhibiting autophagy compared to the other compounds tested | highly superior to compounds 1a, 1b and silymarin | better effect on decreasing the level of both cytokines relative to compounds 1a and 1b and silymarin | 169 | as beneficial as silymarin | as beneficial as silymarin | better effect on decreasing the level of both cytokines relative to compounds 1a and 1b and silymarin | greater impact on inhibiting autophagy compared to the other compounds tested | F0 | mild, insignificant lobular inflammation (activity grade 1) |  |  |  |  |
| Nc1c2c(nc3ccccc13)CCCC2 [tacrine, Tacrine, reference compound] |  |  |  |  |  |  |  | 124 |  |  |  |  |  |  |  |  |  |  |
| CN(C)c1ccc(-c2c3c([nH]c(=O)c2C#N)CCCC3)cc1 [Cpd 1a, 4-(4-(dimethylamino)phenyl)-1,2,5,6,7,8-hexahydro-2-oxoquinoline-3-carbonitrile] |  |  |  | Macrovesicular steatosis and apoptotic cells were still detected |  |  |  | 181 |  |  |  |  | F0 |  | significantly lowering | significantly lowering | F3 | A2 |
